Test system: 883617-216-R-J1-PDC tumor spheroids, viability
Test: Anticancer human tumor 883617-216-R-J1-PDC patient-derived bladder carcinoma cell line growth inhibition [PI3K]
Settings: spheroids with HUVEC and MSC; for IC50: curve of first compound; for viability, T/C: stronger effect = lower value
Outline: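 Agents were dosed from a top concentration near clinical Cmax (otherwise 10 microM) in half-log decrements, alone or combined with PI3K inhibitors. The spheroids contain tumor cells plus endothelial (HUVEC) and MSC stroma; viability is measured.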
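Also: spheroids exposed to agents for 7 days before the viability read.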

Compound: C#Cc1c(F)ccc2cc(O)cc(-c3ncc4c(N5CC6CCC(C5)N6)nc(OCC56CCCN5CC(F)C6)nc4c3F)c12 (configuration not stated) + COc1c(OCCCN2CCOCC2)ccc2c3n(c(=NC(=O)c4cnc(N)nc4)nc12)CCN3
- IC50 (second compound 0.00316 µM): > 10000 nM
- IC50 (second compound 0.01 µM): 4880 nM
- IC50 (second compound 0.0316 µM): < 31.6 nM
- IC50 (second compound 0.1 µM): < 31.6 nM
- IC50 (second compound 0.316 µM): < 31.6 nM
- IC50 (second compound 1 µM): < 31.6 nM
- viability, T/C (second compound 0.00316 µM, first compound 0.0316 µM): 84.7%
- viability, T/C (second compound 0.00316 µM, first compound 0.1 µM): 99.8%
- viability, T/C (second compound 0.00316 µM, first compound 0.316 µM): 88.7%
- viability, T/C (second compound 0.00316 µM, first compound 1 µM): 91.3%
- viability, T/C (second compound 0.00316 µM, first compound 3.16 µM): 80%
- viability, T/C (second compound 0.00316 µM, first compound 10 µM): 52.1%
- viability, T/C (second compound 0.01 µM, first compound 0.0316 µM): 64.1%
- viability, T/C (second compound 0.01 µM, first compound 0.1 µM): 64.8%
- viability, T/C (second compound 0.01 µM, first compound 0.316 µM): 78.9%
- viability, T/C (second compound 0.01 µM, first compound 1 µM): 67.4%
- viability, T/C (second compound 0.01 µM, first compound 3.16 µM): 55.5%
- viability, T/C (second compound 0.01 µM, first compound 10 µM): 41%
- viability, T/C (second compound 0.0316 µM, first compound 0.0316 µM): 37%
- viability, T/C (second compound 0.0316 µM, first compound 0.1 µM): 45.5%
- viability, T/C (second compound 0.0316 µM, first compound 0.316 µM): 34.4%
- viability, T/C (second compound 0.0316 µM, first compound 1 µM): 34%
- viability, T/C (second compound 0.0316 µM, first compound 3.16 µM): 33.6%
- viability, T/C (second compound 0.0316 µM, first compound 10 µM): 22.8%
- viability, T/C (second compound 0.1 µM, first compound 0.0316 µM): 16.4%
- viability, T/C (second compound 0.1 µM, first compound 0.1 µM): 17.1%
- viability, T/C (second compound 0.1 µM, first compound 0.316 µM): 14.6%
- viability, T/C (second compound 0.1 µM, first compound 1 µM): 15.6%
- viability, T/C (second compound 0.1 µM, first compound 3.16 µM): 12.2%
- viability, T/C (second compound 0.1 µM, first compound 10 µM): 11.4%
- viability, T/C (second compound 0.316 µM, first compound 0.0316 µM): 5.31%
- viability, T/C (second compound 0.316 µM, first compound 0.1 µM): 5%
- viability, T/C (second compound 0.316 µM, first compound 0.316 µM): 4.47%
- viability, T/C (second compound 0.316 µM, first compound 1 µM): 4.9%
- viability, T/C (second compound 0.316 µM, first compound 3.16 µM): 3.89%
- viability, T/C (second compound 0.316 µM, first compound 10 µM): 2.71%
- viability, T/C (second compound 1 µM, first compound 0.0316 µM): 3.49%
- viability, T/C (second compound 1 µM, first compound 0.1 µM): 3.22%
- viability, T/C (second compound 1 µM, first compound 0.316 µM): 2.69%
- viability, T/C (second compound 1 µM, first compound 1 µM): 2.82%
- viability, T/C (second compound 1 µM, first compound 3.16 µM): 2.98%
- viability, T/C (second compound 1 µM, first compound 10 µM): 0.66%

Source: PubChem BioAssay AID1963973 (Molecular Pharmacology Branch, DTP, NCI, 2024)
